Test results reported in ChEMBL document CHEMBL4482316, “Compounds for the inhibition of angiogenesis and use thereof” (2013).
Calls of active or inactive are those of the source. The rule behind the calls is not given here.

How the values were obtained:
Rattus norvegicus [1] = assay: Inhibition of oxygen-induced retinal angiogenesis in Sprague-Dawley rat dosed in right eye at stage at P9 and P11 during ischemic phase that follows oxygen exposure by epifluorescent microscopy; assay type: functional, organism-based
Mus musculus = assay: Inhibition of corneal neovascularization in C57 mouse dosed via implanted with pumps at 1 uL/hr for 7 days by fluorescence microscopy; assay type: functional, organism-based
Rattus norvegicus [2] = assay: Inhibition of retinal angiogenesis in newborn Sprague-Dawley rat dosed intravitreally at P1 stage and P3 by epifluorescent microscopy; assay type: functional, organism-based
K562 = assay: Inhibition of cell adhesion in human K562 cells at 0.5 uM pre-incubated for 30 mins before cell adhesion to fibronectin for 30 mins by crystal violet staining based assay; assay type: functional

Structure (SMILES) | inhibition (Rattus norvegicus [1]) | inhibition (Mus musculus) | inhibition (Rattus norvegicus [2]) | inhibition (K562)
COc1cccc(OC)c1C(=O)N[C@@H](CNC(=O)CO[C@@H]1C[C@@H](CNc2ccccn2)N(C(=O)OCc2ccccc2)C1)C(=O)O | Active | Active |  | 
O=C(CO[C@@H]1C[C@@H](CNc2ccccn2)N(C(=O)OCc2ccccc2)C1)NC[C@H](NC(=O)c1ccccc1Cl)C(=O)O | Active | Active |  | 
CC(C)(C)C(=O)N[C@@H](CNC(=O)CO[C@@H]1C[C@@H](CNc2ccccn2)N(C(=O)OCc2ccccc2)C1)C(=O)O | Active | Active |  | 
Cc1cc(C)c(S(=O)(=O)N[C@@H](CNC(=O)CO[C@@H]2C[C@@H](CNc3ccccn3)N(C(=O)OCc3ccccc3)C2)C(=O)O)c(C)c1 | Active | Active | Active | 
Cc1cc(C)c(C(=O)N[C@@H](CNC(=O)CO[C@@H]2C[C@@H](CNc3ccccn3)N(C(=O)OCc3ccccc3)C2)C(=O)O)c(C)c1 | Active | Active |  | Active
Cc1cc(C)c(S(=O)(=O)N[C@@H](CNC(=O)CO[C@@H]2C[C@@H](CNc3ccccn3)N(C(=O)OCC(C)C)C2)C(=O)O)c(C)c1 | Active | Active |  | 
Cc1cc(C)c(S(=O)(=O)N[C@@H](CNC(=O)CO[C@@H]2C[C@@H](CNc3ccccn3)N(C(=O)CC(C)(C)C)C2)C(=O)O)c(C)c1 | Active | Active |  | 
Cc1cc(C)c(S(=O)(=O)N[C@@H](CNC(=O)CO[C@@H]2C[C@@H](CNc3ccccn3)N(C(=O)NC3CCCC3)C2)C(=O)O)c(C)c1 | Active | Active |  | 
COc1ccnc(NC[C@@H]2C[C@@H](OCC(=O)NC[C@H](NC(=O)C3(C)CCCCC3)C(=O)O)CN2C(=O)CC(C)(C)C)c1 | Active | Active |  | 
CCC(C)(C)C(=O)N[C@@H](CNC(=O)CO[C@@H]1C[C@@H](CNc2ccccn2)N(C(=O)OCc2ccccc2)C1)C(=O)O | Active | Active |  | 
C#CCOC(=O)N1C[C@H](OCC(=O)NC[C@H](NS(=O)(=O)c2c(C)cc(C)cc2C)C(=O)O)C[C@H]1CNc1ccccn1 | Active | Active |  | 
O=C(CO[C@@H]1C[C@@H](CNc2ccccn2)N(C(=O)OCc2ccccc2)C1)NC[C@H](NC(=O)C1CCCCC1)C(=O)O | Active | Active |  | 
Cc1cccc(C)c1C(=O)N[C@@H](CNC(=O)CO[C@@H]1C[C@@H](CNc2ccccn2)N(C(=O)OCc2ccccc2)C1)C(=O)O | Active | Active |  | 
O=C(CO[C@@H]1C[C@@H](CNc2ccccn2)N(C(=O)OCc2ccccc2)C1)NC[C@H](NC(=O)c1ccccc1[N+](=O)[O-])C(=O)O | Active | Active |  | 
